Laboratory results from ChEMBL document CHEMBL1150976, “The selectivity of protein kinase inhibitors: a further update” (Biochem J, 2007).
Each block holds one compound with its values, some of them ahead of it.

Columns and labels:
[1] = target: Mitogen-activated protein kinase 1 (Homo sapiens) (UniProt P28482); assay: Percentage ERK2 activity remaining in the presence of 2uM inhibitor
[2] = target: Serine/threonine-protein kinase PAK 6 (Homo sapiens) (UniProt Q9NQU5); assay: Percentage PAK6 activity remaining in the presence of 2uM inhibitor
[3] = target: MAP kinase-activated protein kinase 2 (Homo sapiens) (UniProt P49137); assay: Percentage MAPKAPK2 activity remaining in the presence of 2uM inhibitor
[4] = target: Proto-oncogene tyrosine-protein kinase LCK (Mus musculus) (UniProt P06240); assay: Percentage Lck activity remaining in the presence of 2uM inhibitor
[5] = target: Tyrosine-protein kinase CSK (Homo sapiens, UniProt P41240); assay: Percentage CSK activity remaining in the presence of 2uM inhibitor
[6] = target: Mitogen-activated protein kinase 10 (Homo sapiens) (UniProt P53779); assay: Percentage JNK3 activity remaining in the presence of 2uM inhibitor
[7] = target: Serine/threonine-protein kinase PAK 4 (Homo sapiens, UniProt O96013); assay: Inhibition of PAK4 in the presence of 5uM ATP
[8] = target: MAP/microtubule affinity-regulating kinase 3 (Homo sapiens) (UniProt P27448); assay: Percentage MARK3 activity remaining in the presence of 3uM inhibitor
[9] = target: T1, Mitogen-activated protein kinase 15 (Homo sapiens) (UniProt Q8TD08); assay: Percentage ERK8 activity remaining in the presence of 3uM inhibitor
T1 sequence (whole entry): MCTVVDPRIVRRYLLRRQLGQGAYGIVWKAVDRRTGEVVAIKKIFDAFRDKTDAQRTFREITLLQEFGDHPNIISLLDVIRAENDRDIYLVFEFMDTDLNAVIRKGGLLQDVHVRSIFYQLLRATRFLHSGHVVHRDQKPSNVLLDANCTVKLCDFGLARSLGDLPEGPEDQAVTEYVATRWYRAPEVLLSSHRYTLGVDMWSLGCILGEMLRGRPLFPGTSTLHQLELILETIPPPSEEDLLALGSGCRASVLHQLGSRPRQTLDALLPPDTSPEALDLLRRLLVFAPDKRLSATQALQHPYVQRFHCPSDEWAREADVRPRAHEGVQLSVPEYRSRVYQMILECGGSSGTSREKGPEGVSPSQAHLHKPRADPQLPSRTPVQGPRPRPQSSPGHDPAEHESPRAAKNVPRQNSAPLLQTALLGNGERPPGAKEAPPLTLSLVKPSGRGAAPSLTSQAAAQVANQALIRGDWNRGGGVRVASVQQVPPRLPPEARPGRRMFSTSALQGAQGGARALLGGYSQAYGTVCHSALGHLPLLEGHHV

[10] = target: Serine/threonine-protein kinase PAK 5 (Homo sapiens) (UniProt Q9P286); assay: Percentage PAK5 activity remaining in the presence of 3uM inhibitor
[11] = target: T2, Protein kinase C zeta type (Homo sapiens) (UniProt Q05513); assay: Percentage PKCzeta activity remaining in the presence of 3uM inhibitor
T2 sequence (whole entry): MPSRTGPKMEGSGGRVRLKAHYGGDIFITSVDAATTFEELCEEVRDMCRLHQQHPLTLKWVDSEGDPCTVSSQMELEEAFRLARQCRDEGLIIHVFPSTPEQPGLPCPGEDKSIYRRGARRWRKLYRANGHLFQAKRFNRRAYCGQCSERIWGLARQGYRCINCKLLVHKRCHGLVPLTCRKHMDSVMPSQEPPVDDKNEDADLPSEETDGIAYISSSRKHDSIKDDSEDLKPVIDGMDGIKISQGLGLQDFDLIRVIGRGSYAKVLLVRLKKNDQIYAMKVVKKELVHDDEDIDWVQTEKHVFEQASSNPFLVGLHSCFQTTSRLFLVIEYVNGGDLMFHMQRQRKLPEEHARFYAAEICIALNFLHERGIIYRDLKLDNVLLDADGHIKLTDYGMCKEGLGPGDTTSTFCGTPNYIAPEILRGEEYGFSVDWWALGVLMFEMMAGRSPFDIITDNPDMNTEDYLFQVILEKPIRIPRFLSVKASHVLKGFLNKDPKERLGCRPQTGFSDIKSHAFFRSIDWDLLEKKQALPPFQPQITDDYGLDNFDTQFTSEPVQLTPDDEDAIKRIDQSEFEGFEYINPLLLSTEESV

[12] = target: Cyclin-dependent kinase 2/cyclin A (Homo sapiens) (UniProt P24941+P20248+P78396); assay: Percentage CDK2-cyclinA activity remaining in the presence of 3uM inhibitor; assay type: protein-complex assay
[13] = target: Casein kinase I isoform delta (Homo sapiens, UniProt P48730); assay: Percentage CK1delta activity remaining in the presence of 3uM inhibitor
Sequence of Casein kinase I isoform delta (P48730 whole entry, looked up, canonical isoform): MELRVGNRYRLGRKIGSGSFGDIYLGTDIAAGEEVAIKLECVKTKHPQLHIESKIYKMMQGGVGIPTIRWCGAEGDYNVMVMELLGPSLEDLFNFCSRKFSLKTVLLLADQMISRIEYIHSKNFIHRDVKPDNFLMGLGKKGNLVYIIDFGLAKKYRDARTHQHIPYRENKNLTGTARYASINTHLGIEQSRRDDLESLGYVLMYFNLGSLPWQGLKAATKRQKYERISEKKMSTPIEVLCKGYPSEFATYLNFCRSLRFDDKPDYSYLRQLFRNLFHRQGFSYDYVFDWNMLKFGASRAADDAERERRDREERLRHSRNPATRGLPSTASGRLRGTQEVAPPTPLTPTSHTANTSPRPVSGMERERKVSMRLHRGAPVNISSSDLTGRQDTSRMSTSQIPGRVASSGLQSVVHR

Sequence of MAP/microtubule affinity-regulating kinase 3 (Homo sapiens) (P27448 whole entry, looked up): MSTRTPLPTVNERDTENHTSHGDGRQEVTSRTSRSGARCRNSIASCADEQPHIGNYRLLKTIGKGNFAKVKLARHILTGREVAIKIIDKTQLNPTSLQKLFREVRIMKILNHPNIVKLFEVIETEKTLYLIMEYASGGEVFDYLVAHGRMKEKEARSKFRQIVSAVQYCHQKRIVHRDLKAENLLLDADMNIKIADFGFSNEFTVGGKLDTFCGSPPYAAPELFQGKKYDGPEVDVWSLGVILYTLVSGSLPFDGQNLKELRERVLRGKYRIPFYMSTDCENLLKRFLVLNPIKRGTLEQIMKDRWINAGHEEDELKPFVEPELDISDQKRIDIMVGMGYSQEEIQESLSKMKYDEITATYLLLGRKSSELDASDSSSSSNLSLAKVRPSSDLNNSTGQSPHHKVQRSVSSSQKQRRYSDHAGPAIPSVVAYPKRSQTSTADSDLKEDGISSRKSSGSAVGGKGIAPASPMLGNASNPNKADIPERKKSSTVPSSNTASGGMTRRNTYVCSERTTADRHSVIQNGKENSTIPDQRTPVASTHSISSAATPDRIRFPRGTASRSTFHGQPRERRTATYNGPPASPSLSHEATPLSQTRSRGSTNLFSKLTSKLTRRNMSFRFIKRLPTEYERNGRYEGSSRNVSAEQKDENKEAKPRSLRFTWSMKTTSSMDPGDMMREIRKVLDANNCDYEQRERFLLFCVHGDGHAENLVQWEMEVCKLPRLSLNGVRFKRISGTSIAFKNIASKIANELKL
Sequence of Mitogen-activated protein kinase 10 (Homo sapiens) (P53779 whole entry): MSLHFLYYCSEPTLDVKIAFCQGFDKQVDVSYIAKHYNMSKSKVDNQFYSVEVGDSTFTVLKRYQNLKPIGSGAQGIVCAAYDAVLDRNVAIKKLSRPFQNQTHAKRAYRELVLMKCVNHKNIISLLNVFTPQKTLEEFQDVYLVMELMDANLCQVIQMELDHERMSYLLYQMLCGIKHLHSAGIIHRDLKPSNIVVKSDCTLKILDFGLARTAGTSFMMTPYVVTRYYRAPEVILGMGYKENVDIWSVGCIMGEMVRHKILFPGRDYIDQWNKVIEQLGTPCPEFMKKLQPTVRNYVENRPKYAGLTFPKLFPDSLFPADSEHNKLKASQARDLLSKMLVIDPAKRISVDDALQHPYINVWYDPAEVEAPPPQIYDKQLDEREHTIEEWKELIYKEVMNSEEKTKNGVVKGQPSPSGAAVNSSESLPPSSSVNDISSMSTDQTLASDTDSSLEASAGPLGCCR
Sequence of Serine/threonine-protein kinase PAK 6 (Homo sapiens) (Q9NQU5 whole entry, looked up): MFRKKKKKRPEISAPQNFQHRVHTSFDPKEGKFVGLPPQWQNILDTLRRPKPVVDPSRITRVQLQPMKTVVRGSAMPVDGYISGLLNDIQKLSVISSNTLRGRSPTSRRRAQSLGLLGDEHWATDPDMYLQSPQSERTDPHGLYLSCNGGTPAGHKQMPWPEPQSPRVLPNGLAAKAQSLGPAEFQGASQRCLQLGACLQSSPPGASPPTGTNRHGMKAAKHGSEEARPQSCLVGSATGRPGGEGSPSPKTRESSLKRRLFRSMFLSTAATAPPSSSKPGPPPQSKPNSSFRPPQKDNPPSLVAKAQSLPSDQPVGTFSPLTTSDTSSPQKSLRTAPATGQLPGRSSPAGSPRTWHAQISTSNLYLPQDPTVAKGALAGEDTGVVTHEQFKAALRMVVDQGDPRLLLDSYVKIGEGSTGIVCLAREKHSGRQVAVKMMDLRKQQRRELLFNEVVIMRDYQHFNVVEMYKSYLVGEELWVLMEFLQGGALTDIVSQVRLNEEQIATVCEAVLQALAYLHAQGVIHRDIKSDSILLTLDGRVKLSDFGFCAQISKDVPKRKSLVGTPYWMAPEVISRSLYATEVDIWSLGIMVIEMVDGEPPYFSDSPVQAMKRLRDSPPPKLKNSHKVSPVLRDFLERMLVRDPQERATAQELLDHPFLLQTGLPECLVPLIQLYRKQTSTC
Sequence of Tyrosine-protein kinase CSK (P41240 2-450 limits assumed): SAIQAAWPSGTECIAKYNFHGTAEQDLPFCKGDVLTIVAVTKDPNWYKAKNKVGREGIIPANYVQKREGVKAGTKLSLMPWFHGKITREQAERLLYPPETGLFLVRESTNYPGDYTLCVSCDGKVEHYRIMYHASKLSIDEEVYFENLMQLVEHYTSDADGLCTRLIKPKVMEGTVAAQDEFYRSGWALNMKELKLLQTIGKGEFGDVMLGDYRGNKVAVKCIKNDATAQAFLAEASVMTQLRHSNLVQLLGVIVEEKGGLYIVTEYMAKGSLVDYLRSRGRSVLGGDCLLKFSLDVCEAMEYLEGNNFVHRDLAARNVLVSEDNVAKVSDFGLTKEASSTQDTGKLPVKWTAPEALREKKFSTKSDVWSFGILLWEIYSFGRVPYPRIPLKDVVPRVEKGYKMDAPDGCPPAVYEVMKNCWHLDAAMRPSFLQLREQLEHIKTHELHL
Sequence of Mitogen-activated protein kinase 1 (Homo sapiens) (P28482 whole entry): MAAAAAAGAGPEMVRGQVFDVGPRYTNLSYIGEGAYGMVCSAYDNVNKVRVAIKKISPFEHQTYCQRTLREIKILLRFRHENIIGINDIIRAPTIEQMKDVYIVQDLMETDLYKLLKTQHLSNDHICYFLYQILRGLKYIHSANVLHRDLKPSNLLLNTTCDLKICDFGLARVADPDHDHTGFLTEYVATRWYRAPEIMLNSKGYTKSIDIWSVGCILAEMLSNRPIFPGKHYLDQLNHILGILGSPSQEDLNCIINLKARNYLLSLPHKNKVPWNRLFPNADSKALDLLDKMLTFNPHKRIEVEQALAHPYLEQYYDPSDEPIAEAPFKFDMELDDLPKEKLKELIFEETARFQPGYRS
Sequence of MAP kinase-activated protein kinase 2 (Homo sapiens) (P49137 whole entry, looked up): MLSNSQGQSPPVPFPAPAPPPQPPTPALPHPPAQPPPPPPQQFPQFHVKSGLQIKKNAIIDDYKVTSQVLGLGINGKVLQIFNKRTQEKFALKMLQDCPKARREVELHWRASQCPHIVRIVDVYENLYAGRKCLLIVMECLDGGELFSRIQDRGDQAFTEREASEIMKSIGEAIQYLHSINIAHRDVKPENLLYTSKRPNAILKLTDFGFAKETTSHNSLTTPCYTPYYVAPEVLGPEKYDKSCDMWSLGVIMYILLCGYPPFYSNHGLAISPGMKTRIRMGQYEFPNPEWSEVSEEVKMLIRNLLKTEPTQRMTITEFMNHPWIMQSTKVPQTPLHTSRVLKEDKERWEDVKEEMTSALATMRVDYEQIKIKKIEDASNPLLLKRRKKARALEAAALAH
Sequence of Serine/threonine-protein kinase PAK 4 (O96013 whole entry): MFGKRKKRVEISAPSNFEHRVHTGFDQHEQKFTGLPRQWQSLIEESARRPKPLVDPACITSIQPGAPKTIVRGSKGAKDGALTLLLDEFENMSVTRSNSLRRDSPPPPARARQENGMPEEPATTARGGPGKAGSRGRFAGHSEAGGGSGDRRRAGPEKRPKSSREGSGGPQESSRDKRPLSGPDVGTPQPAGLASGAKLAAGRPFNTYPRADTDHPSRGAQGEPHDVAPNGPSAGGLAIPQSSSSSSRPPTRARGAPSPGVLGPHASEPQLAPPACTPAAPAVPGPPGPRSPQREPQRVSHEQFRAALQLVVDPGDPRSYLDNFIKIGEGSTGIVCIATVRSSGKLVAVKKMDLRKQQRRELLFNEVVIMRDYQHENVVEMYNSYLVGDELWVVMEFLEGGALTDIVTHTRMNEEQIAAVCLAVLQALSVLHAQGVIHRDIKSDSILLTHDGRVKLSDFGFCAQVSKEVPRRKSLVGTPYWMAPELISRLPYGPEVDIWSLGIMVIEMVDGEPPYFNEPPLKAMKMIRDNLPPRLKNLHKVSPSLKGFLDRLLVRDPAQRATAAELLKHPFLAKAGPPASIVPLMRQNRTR
Sequence of Proto-oncogene tyrosine-protein kinase LCK (Mus musculus) (P06240 2-509 limits assumed): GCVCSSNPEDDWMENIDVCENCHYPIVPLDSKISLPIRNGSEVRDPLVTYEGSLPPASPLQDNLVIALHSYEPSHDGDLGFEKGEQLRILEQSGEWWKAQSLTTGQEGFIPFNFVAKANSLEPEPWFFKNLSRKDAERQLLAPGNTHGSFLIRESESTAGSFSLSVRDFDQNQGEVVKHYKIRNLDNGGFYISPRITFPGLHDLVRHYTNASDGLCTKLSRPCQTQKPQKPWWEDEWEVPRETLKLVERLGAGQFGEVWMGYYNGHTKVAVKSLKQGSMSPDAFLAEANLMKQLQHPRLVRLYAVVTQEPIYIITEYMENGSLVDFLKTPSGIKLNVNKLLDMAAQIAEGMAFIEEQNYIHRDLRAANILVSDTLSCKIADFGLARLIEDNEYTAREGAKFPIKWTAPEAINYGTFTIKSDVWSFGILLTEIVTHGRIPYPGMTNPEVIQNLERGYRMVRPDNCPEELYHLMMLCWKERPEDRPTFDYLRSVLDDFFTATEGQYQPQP

- Activity [1]: 97%
- Activity [2]: 90%
- Activity [3]: 82%
- Activity [4]: 77%
- Activity [5]: 88%
- Activity [6]: 88%
SMILES: Cn1cc(C2=C(c3ccc(Cl)cc3Cl)C(=O)NC2=O)c2ccccc21

SMILES: CC(C)[C@H](CO)Nc1nc(Nc2cccc(Cl)c2)c2ncn(C(C)C)c2n1 [PURVALANOLA]
- IC50 [7]: 130 nM (antagonist)

- Activity [8]: 80%
- Activity [10]: 88%
- Activity [11]: 91%
- Activity [12]: 80%
- Activity [13]: 63%
SMILES: Cc1ccc(-c2c(C(=O)CF)n(CCCO)c3ncnc(N)c23)cc1
- Activity [9]: 58%
